Data published in patent US4883796A, “Oxime ethers of 2,6-dioxabicyclo(3.3.0)octanones, and compositions and methods for treatment of a cardiac disease or circulatory with them” (Heinrich Mack Nachf., priority 1987, dated 1989).
pIC50: −log10 of the molar value.

Legend:
[1] = orientating toxicity, mice, perorally; details: mouse, in vivo, po, read-out: dose withstood without clinical symptoms and without fatalities
isolated aorta strips [2] = assay: inhibition of potassium chloride-induced contractions on isolated aorta strips, rat; format: cell-based; details: read-out: ED50, inhibition of potassium chloride-induced contractions
isolated aorta strips [3] = assay: inhibition of potassium chloride-induced contractions on isolated aorta strips, rabbit; format: cell-based; details: Oryctolagus cuniculus, read-out: ED50, inhibition of potassium chloride-induced contractions
Isoprenaline tachycardia = assay: Inhibition of Isoprenaline tachycardia in narcotised, despinalised rats; format: in vivo; details: Rattus norvegicus, prophylactic
Text: Inhibition of Isoprenaline tachycardia in narcotised,
despinalised rats after prophylactic, intravenous or
intraduodenal application

[4] = tested on: Lypressin-induced T-wave elevation in the ECG; assay: Influence on the Lypressin-induced T-wave elevation in the ECG of narcotised rats; format: in vivo
Procedure: Influence on the T-wave elevation in the ECG of narcotised
rats, which was induced by intravenous bolus injection of
Lypressin. The substances were administered perorally 15
minutes and at various times before the Lypressin injection

[5] = Influence on systolic arterial pressure and heart rate of conscious normotensive beagle dogs, perorally; format: in vivo; details: 10.0 mg/kg perorally; for HR (heart rate): 0 h value 88 ± 3; for SAP (systolic arterial pressure): 0 h value 134 ± 3
Procedure: Influence on the systolic arterial pressure (SAP) and the heart rate
(HR) of concious normotensive beagle dogs. Substance was administered

[6] = Reduction of the arterial mean pressure in narcotised rabbits, i.d.; format: in vivo; details: Oryctolagus cuniculus, intraduodenal, read-out: ED30 (mmHg), reduction of the arterial mean pressure
Procedure: Reduction of the arterial mean pressure in narcotised rabbits.
The substance was administered i.d.

Work on `CC(C)NCC(O)CON=C1CO[C@H]2[C@@H]1OC[C@H]2O[N+](=O)[O-]` (stereo partly drawn) [Example 1, 4-(2-Hydroxy-3-isopropylamino-propyl)-oximino-2,6-dioxabicyclo[3.3.0]octan-8-endo-ol-nitrate] yielded an NOAEL [1] of 500 mg/kg, a pIC50 (isolated aorta strips [2]) of 4.62 and a pIC50 (isolated aorta strips [3]) of 5.23. For the same molecule, the ED50 (Isoprenaline tachycardia; iv) was 11 mg/kg, the ED50 (Isoprenaline tachycardia; i.d.) was 82.6 mg/kg and the ED50 ([4]; Rattus norvegicus, po, 0.25 h, perorally 15 minutes before Lypressin) was 53.8 mg/kg. The “Length of action at ED50-Dose” value ([4]; perorally) was 240 min, the HR changes ([5]; 0.5 h) was -15 ± 3 Schl/M and the SAP changes ([5]; 0.5 h) was -36 ± 2 mmHg. The “HR (heart rate)” value ([5]; 0.5 h) was 73 ± 3 Schl/M, the “SAP (systolic arterial pressure)” value ([5]; 0.5 h) was 98 ± 3 mmHg and the HR changes ([5]; 1 h) was -16 ± 4 Schl/M. For the same molecule, the SAP changes ([5]; 1 h) was -32 ± 2 mmHg, the “HR (heart rate)” value ([5]; 1 h) was 72 ± 5 Schl/M and the “SAP (systolic arterial pressure)” value ([5]; 1 h) was 102 ± 4 mmHg. For the same molecule, the HR changes ([5]; 2 h) was -14 ± 2 Schl/M, the SAP changes ([5]; 2 h) was -20 ± 1 mmHg and the “HR (heart rate)” value ([5]; 2 h) was 74 ± 6 Schl/M. The “SAP (systolic arterial pressure)” value ([5]; 2 h) was 114 ± 3 mmHg, the HR changes ([5]; 3 h) was -10 ± 3 Schl/M and the SAP changes ([5]; 3 h) was -16 ± 2 mmHg. For the same molecule, the “HR (heart rate)” value ([5]; 3 h) was 78 ± 4 Schl/M, the “SAP (systolic arterial pressure)” value ([5]; 3 h) was 118 ± 3 mmHg and the HR changes ([5]; 4 h) was -9 ± 2 Schl/M. For the same molecule, the SAP changes ([5]; 4 h) was -19 ± 3 mmHg, the “HR (heart rate)” value ([5]; 4 h) was 79 ± 5 Schl/M and the “SAP (systolic arterial pressure)” value ([5]; 4 h) was 115 ± 3 mmHg. It also gave an ED (30 mmHg) [6] of 24.2 mg/kg.
